# Earlier results, collected in patent publication US7645459B2, “Dosage forms of bisphosphonates” (The Procter & Gamble Company, priority 2004, dated 2010).
# Conditions: administration within 30 minutes of a meal
structure (smiles),measurement,value
"O=P(O)(O)C(O)(Cc1cccnc1)P(=O)(O)O [risedronate, 1-hydroxy-2-(3-pyridinyl)-ethylidene-1,1-bisphosphonic acid]",reduction of the amount absorbed compared to administration in the fasting state,50%
